The source of these data is ChEMBL document CHEMBL5576085, “Heterocyclic compounds as xanthine oxidase inhibitors for the management of hyperuricemia: synthetic strategies, structure-activity relationship and molecular docking studies (2018-2024)” (RSC Med Chem, 2024).

In test [1] the target is T1, Xanthine dehydrogenase/oxidase (Homo sapiens, UniProt P47989). The experiment in a line: Inhibition of Xanthine oxidase (unknown origin).
Test [2] addresses T2, Xanthine dehydrogenase/oxidase (Bos taurus, UniProt P80457). Kind of test: Inhibition of bovine serum Xanthine oxidase. It counts as cell-free.
In test [3] the target is T1, Xanthine dehydrogenase/oxidase. Kind of test: Inhibition of Xanthine oxidase (unknown origin) using xanthine as substrate preincubated for 30 mins followed by substrate addition by spectrophotometric analysis.
The target in test [4] is T2, Xanthine dehydrogenase/oxidase. The experiment in a line: Inhibition of bovine milk xanthine oxidase using xanthine as substrate preincubated for 30 mins followed by substrate addition by spectrophotometric analysis.
The target is the same in test [5]. The experiment in a line: Inhibition of bovine xanthine oxidase using xanthine as substrate by measuring uric acid formation measured 30 secs interval for 2 mins by spectrophotometric analysis.
In test [6] the target is T1, Xanthine dehydrogenase/oxidase. Kind of test: Inhibition of human Xanthine oxidase.

T2 sequence (P80457 whole entry): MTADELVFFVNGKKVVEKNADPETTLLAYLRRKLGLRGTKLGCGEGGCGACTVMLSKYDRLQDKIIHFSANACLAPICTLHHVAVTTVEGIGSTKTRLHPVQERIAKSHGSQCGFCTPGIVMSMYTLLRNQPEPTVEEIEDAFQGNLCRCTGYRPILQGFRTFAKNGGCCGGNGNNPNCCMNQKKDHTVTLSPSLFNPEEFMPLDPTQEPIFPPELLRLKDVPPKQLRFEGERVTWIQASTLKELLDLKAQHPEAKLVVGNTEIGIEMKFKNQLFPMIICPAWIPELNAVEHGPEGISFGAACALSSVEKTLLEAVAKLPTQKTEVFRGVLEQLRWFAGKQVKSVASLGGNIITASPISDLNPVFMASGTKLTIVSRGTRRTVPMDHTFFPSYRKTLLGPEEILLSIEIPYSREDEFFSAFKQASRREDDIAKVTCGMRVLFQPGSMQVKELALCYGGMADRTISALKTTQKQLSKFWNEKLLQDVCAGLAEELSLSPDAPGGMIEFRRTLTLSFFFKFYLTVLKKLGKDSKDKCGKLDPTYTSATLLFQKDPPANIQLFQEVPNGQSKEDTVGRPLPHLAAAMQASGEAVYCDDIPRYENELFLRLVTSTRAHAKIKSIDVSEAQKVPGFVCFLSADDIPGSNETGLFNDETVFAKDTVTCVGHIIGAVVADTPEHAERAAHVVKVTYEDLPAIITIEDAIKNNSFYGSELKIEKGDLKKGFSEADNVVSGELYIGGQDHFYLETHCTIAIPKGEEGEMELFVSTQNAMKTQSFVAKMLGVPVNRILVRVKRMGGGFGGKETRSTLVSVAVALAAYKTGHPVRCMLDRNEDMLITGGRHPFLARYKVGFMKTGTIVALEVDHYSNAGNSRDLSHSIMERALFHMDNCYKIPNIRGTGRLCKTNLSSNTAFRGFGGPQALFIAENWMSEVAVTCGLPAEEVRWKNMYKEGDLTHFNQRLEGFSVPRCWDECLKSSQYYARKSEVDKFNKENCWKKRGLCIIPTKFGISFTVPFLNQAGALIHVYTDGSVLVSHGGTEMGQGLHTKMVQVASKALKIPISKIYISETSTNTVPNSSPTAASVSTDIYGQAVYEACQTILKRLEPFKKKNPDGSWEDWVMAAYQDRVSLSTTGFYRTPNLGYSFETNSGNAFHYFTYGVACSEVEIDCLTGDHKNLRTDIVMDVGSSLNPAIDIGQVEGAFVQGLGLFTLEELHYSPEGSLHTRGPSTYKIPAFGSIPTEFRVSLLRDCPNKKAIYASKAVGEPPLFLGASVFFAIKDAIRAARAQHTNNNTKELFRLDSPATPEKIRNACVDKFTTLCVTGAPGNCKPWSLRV
T1 sequence (P47989 whole entry): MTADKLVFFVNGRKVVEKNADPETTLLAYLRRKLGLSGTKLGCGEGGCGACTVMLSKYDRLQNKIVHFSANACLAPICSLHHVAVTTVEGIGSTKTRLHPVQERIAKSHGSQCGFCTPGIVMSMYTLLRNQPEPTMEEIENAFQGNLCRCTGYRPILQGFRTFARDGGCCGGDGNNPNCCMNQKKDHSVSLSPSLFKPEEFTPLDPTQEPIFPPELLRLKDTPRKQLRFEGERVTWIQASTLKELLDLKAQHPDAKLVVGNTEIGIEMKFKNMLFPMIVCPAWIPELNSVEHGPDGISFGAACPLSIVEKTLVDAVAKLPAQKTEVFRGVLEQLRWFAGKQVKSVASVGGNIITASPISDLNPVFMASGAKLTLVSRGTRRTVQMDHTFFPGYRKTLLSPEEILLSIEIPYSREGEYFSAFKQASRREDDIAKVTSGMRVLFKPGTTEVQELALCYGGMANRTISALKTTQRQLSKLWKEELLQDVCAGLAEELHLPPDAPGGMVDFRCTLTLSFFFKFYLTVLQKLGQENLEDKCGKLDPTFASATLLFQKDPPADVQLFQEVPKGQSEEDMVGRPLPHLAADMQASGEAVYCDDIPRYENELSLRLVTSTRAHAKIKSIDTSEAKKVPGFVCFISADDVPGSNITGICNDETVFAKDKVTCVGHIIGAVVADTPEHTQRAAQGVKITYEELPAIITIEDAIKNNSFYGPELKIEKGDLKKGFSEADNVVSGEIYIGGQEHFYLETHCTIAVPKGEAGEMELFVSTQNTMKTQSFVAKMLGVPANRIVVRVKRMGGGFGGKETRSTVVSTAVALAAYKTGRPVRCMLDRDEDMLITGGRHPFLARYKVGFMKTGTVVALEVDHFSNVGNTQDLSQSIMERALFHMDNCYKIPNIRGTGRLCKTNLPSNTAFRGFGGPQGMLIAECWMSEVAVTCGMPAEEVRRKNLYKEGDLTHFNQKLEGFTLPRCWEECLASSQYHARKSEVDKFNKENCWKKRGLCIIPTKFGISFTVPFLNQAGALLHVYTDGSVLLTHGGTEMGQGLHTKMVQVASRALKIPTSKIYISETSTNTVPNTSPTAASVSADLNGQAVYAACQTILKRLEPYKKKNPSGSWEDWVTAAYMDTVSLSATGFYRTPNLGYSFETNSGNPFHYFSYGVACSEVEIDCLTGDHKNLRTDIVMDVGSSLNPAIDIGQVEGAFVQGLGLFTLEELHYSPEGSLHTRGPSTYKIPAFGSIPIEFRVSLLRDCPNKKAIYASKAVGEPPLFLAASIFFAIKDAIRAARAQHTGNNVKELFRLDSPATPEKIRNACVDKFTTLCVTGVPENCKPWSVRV

Broadly, the IC50 is the concentration that gives 50% inhibition. A high value points to lower potency. The molecule `Cc1c(/N=C/c2ccc(C(=O)Nc3nc4ccc(S(C)(=O)=O)cc4s3)cc2)c(=O)n(-c2ccccc2)n1C` showed an IC50 in test [1] of 2220 nM.
`OCc1nnn(Cc2cccc(Br)c2)c1CO` yielded an IC50 in test [1] of 710 nM.
In test [1], `O=c1[nH]c(-c2ccc(OCC3CCCCC3)c(-n3cnnn3)c2)no1` showed an IC50 of 121 nM.
Molecule `C=Cc1ccc(C[n+]2cn(Cc3ccc(SC)cc3)c3ccccc32)cc1` registered an IC50 in test [1] of 590 nM.
For `N#Cc1cc[n+](Cc2ccc(-c3ccc(C[n+]4ccc(C#N)c(C(=O)O)c4)cc3)cc2)cc1C(=O)O`, in test [2], inhibition was half-maximal at 394 nM (IC50).
The molecule `CCn1c(O)c(C(c2ccc(Br)cc2)c2c(O)n(CC)c(=S)n(CC)c2=O)c(=O)n(CC)c1=S` returned a concentration for half-maximal inhibition (IC50) in test [1] of 1790 nM.
On to `O=C1CCC(Nc2nc3cc(C(=O)Nc4cc(O)c(O)c(O)c4)ccc3n2Cc2ccc(O)cc2)C(=O)N1` (stereo unspecified), for which the IC50 in test [1] is 18400 nM.
Still for that read-out and setting: the figure for `COc1cc2ccc(C(=O)NCCCCc3ccc(O)c(O)c3)cc2cc1OC` is 13100 nM.
In test [3], `Nc1ccc(O)c(/N=N/c2ncc(-n3cc4c(=O)ncnc-4[nH]3)[nH]2)c1` registered an IC50 of 600 nM.
In test [4], `O=c1cc(O)cc(/C=C/c2ccc(O)c(O)c2)o1` [HISPIDIN] gave an IC50 of 39700 nM.
Regarding `Oc1ccc(/C=C/c2cc(O)cc3oc(-c4ccc(O)cc4)c(-c4cc(O)cc(O)c4)c23)cc1`, the midpoint of inhibition in test [1], the IC50, lay at 12300 nM.
Molecule `C[C@@H]1O[C@@H](OC[C@H]2O[C@@H](Oc3c(-c4ccc(O)c(O)c4)oc4cc(O)cc(O)c4/c3=N\Nc3ccccc3)[C@H](O)[C@@H](O)[C@@H]2O)[C@H](O)[C@H](O)[C@H]1O` had an IC50 in test [1] of 4870 nM.
Take `COc1ccc2c(c1)C(=O)C(=O)N2CCn1cc(COc2cc(=O)oc3ccccc23)nn1`: the IC50 in test [5] amounted to 6500 nM.
Turning to `COc1ccc(C(=O)/C=C/c2ccc(O)cc2)c(OC)c1`, half-maximal inhibition in test [1] (IC50) required 121 nM.
For `O=[N+]([O-])c1ccc(-c2cnc(-c3ccc(Br)cc3)s2)cc1`, the IC50 in test [1] was 100 nM.
`COc1ccc([C@@H]2C/C(=N\c3ccc([N+](=O)[O-])cc3Cl)c3c(O)cc(O[C@H]4O[C@@H](O[C@H]5O[C@@H](C)[C@H](O)[C@@H](O)[C@H]5O)[C@H](O)[C@@H](O)[C@@H]4O)cc3O2)cc1O` had an IC50 in test [6] of 263 nM.
